Experimental data as given in patent US9006454B2, “Dihydroorotate dehydrogenase inhibitors” (Merck Serono S.A., priority 2009, dated 2015).

Assays:
Jurkat cells = test: Measurement of cell proliferation (Jurkat cell), XTT assay; assay type: cell-based; conditions: for inhibition at 1 µM: compound at 1 uM, read-out: % inh Jurkat_cells @ 1 uM (%); for EC50: XTT cell viability
Experimental: See also Roehm, N et al [1991] An improved colorimetric assay for cell proliferation and viability utilizing the tetrazolium salt XTT. J. Immunol. Methods 142:257-265.
Culture Jurkat cells in T-25 flasks at a density of 0.2×10^6/ml 2-3 days before the day of experiment set up.
Centrifuge Jurkat T-cell suspension at 1200 rpm for 10 minutes and resuspend cells again in fresh RPMI medium with 10% FBS.
Count the cells and dilute suspension to a density of 2×10^6 cells/ml. Seed 50 μL of this suspension in each well of a 96 well plate (100,000 cells per well). Keep the edges of the plate empty to avoid evaporation.
Serially dilute DMSO stocks of compounds to get different concentrations for an EC50 curve. 50 μL of compound diluted in media (2× concentration required in well) is added to each well. DMSO concentration should be kept constant at 0.25-0.5% for all wells.
Typically, for all compounds with IC50<1 μM, compound concentration can start at 10 μM followed by half log dilutions for a total of 8-10 concentrations. Each concentration has to be tested in triplicate.
Include controls such as cells without compound (with same DMSO concentration as compound wells), and media control
Incubate the 96 well plate in a CO2 incubator at 37° C. for 72 hrs before determining cell viability using XTT assay
XTT assay: to each well, add 50 μL of 1 mg/ml XTT solution with 20 μl of PMS/mL. Read the plates after 2 hours at 465 nm using the spectrophotometer. XTT reading for media without cells is used as background reading.
Calculate % cell viability assuming that the cells without compound are 100% viable.
Plot % cell viability as a function of concentration and determine EC50 by using software such as Graph Pad Prism to fit the curve.

DHODH = DHODH (Homo sapiens (Human), UniProt Q02127); test: DHODH activity assay (coupled enzyme assay, DCIP reduction, absorbance at 610 nm); assay type: biochemical; conditions: for inhibition at 10 µM / inh @ 10 uM hDHODH (%): compound at 10 uM; for inhibition at 10 µM: read-out: inh @ 10 uM hDHODH (%)
Chain of DHODH (Q02127 whole entry): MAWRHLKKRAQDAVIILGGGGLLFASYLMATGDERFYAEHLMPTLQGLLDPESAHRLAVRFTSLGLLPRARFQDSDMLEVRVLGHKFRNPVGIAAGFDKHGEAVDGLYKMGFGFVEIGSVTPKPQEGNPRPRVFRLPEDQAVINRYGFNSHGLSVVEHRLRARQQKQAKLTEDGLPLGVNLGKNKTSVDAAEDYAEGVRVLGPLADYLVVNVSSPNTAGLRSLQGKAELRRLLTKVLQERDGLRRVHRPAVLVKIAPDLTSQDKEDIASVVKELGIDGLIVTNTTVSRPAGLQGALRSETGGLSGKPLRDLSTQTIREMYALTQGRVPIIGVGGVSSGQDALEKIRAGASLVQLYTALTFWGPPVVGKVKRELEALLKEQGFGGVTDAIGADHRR
Experimental: The DHODH activity assay is a coupled enzyme assay in which oxidation of DHO and subsequent reduction of ubiquinone are stoichiometrically equivalent to the reduction of DCIP ([…]). The reduction of DCIP is accompanied by a loss of absorbance at 610 nm.
Buffer Preparation: 50 mM tris HCl, 150 mM KCl, and pH 8.0, 0.8% triton.
5 μL of Dimethyl sulfoxide or a compound of formula I in DMSO solution was added to the wells of a 96 well plate. Compounds of formula I were measured at 10 μM.
Protein along with buffer was added, so that the total volume including the DMSO was 87 μL. Compound and protein were incubated for half an hour at room temperature after mixing. 5 μL of 20 mM solution of L-Dihydroorotic acid, 5 μL of 2 mM solution of Decylubiquinone and 3 μL of 2 mM solution of 2,6-Dichloroindophenol sodium salt hydrate were added to the above solution (total assay volume 100 μL). The mixture was stirred for 2 min and absorbance was recorded at every 10 min at 610 nanometers.
Percent Inhibition is Calculated as Follows
Positive control contains DMSO, buffer, enzyme and substrates
No Enzyme reaction contains DMSO, buffer and substrates
IC50 determination: • A 2 mM DMSO stock of the compound of formula I to be examined was prepared. ⅓rd dilutions were made as follows:
5 μL of each stock of compound of formula I (solution indicated in column 4 of table) was used for each 100 μL assay. Therefore, 5 μL of the 2 mM stock provided 100 μL of 100 μM solution of compound of formula I, when made up with buffer, protein and substrate. See also: Ulrich et al. (2001) Eur. J. Biochem. 268, 1861-1868.

| SMILES | inhibition at 1 µM (Jurkat cells; Homo sapiens, Jurkat) [%] | inhibition at 10 µM (DHODH) [%] | EC50 (Jurkat cells; Homo sapiens, Jurkat, 72 h) [nM] | IC50 (DHODH) [nM] | EC50 (Jurkat cells; 72 hrs) [nM] | inh @ 10 uM hDHODH (%) (DHODH) |
| --- | --- | --- | --- | --- | --- | --- |
| O=C(O)c1cccc2[nH]c(-c3ccc(-c4ccc(OCc5ccncc5)cc4)cc3)nc12 [I183] | 23.5 | 63.9 |  |  |  |  |
| Cc1cc(C(=O)O)c2[nH]c(-c3ccc(-c4ccccc4F)cc3F)nc2c1 [I25] | 82 | 94 | 98 | 172 |  |  |
| N#Cc1ccc(Oc2ccc(-c3ccc(-c4nc5c(C(=O)O)cccc5[nH]4)cc3)cc2)cc1 [I179] | 10.1 | 45.8 |  |  |  |  |
| Cc1cc(C(=O)O)c2nc(-c3ccc(-c4ccccc4)cc3)n(CCO)c2c1 [I93] | 29 | 78.8 |  | 4790 |  |  |
| O=C(O)c1cc(F)cc2nc(-c3ccc4[nH]ccc4c3)[nH]c12 [I36] | 7.7 | 16.1 |  |  |  |  |
| O=Cc1ccc(Oc2ccc(-c3ccc(-c4nc5c(C(=O)O)cccc5[nH]4)cc3)cc2)cc1 [I180] | 9.8 | 30.5 |  |  |  |  |
| Cc1cc(C#N)c2nc(-c3c(F)c(F)c(-c4ccccc4)c(F)c3F)[nH]c2c1 [I109] | 49 | 87 |  | 1650 |  |  |
| Cc1cc(C(=O)NC2CCCC2)c2[nH]c(-c3c(F)c(F)c(-c4ccccc4)c(F)c3F)nc2c1 [I158] | 6.5 | 48.5 |  |  |  |  |
| COc1cccc(-c2ccc(-c3nc4c(C(=O)O)cccc4[nH]3)c(F)c2)c1 [I5] |  |  |  | 368 | 356 | 94.3 |
| O=C(O)c1cccn2cc(-c3ccc(-c4ccccc4)cc3)nc12 [I138] | 44.8 | 76.1 |  | 3800 |  |  |
| Cc1cc(C(=O)O)c2nc(-c3c(F)cc(-c4ccccc4)cc3F)[nH]c2c1 [I48] | 88.1 | 100 | 393 | 177 |  |  |
| Cn1c(-c2ccc(-c3ccccc3)cc2)nc2c(C(=O)O)cccc21 [I7] |  | 30.2 |  |  |  |  |
| Cc1cc(C(=O)O)c2nc(-c3ccc(-c4ccccc4)cn3)[nH]c2c1 [I53] | 22.7 | 59.8 |  | 7070 |  |  |
| O=C(O)c1cc(Cl)cc2nc(-c3ccc(-c4ccccc4)cc3)[nH]c12 [I35] | 56.4 | 92.9 | 746 | 994 |  |  |
| Cc1cc(C(=O)O)c2[nH]c(-c3ccc(-n4c(C)ccc4C)cc3)nc2c1 [I121] | 70.7 | 108 |  | 401 |  |  |
| Cc1cc(C(=O)O)c2nc(-c3c(F)c(F)c(-c4ccc(OCc5ccccc5)cc4)c(F)c3F)[nH]c2c1 [I127] | 96 | 101 |  | 48 |  |  |
| Cc1cc(C(=O)O)c2[nH]c(-c3ccc(-c4ccc(F)cc4F)cc3F)nc2c1 [I31] | 55.5 | 92.7 |  | 1010 |  |  |
| O=C(O)c1cccc2[nH]c(-c3ccc(-c4cccc(F)c4F)cc3)nc12 [I60] | 33.4 | 80.4 |  |  |  |  |
| Cc1cc(C(=O)O)c2[nH]c(-c3c(F)c(F)c(-c4cccc(OCc5ccccc5)c4)c(F)c3F)nc2c1 [I105] | 91.9 | 95.8 |  | 13.6 |  |  |
| O=C(O)c1cccc2nc(-c3ccc(-c4ccccc4)cc3F)[nH]c12 [I27] | 57.1 | 86.2 |  | 922 |  |  |
| COc1cc(-c2ccccc2)ccc1-c1nc2c(C(=O)O)cc(C)cc2[nH]1 [I46] | 57.1 | 97.7 |  | 1180 |  |  |
| Cc1cc(C(=O)O)c2nc(-c3c(F)c(F)c(-c4ccc(F)cc4)c(F)c3F)[nH]c2c1 [I134] | 77.9 | 88.1 |  | 118 |  |  |
| O=C(O)c1cccc2nc(-c3ccc(-c4ccccc4F)cc3F)[nH]c12 [I24] | 53.2 | 86.7 |  | 965 |  |  |

| SMILES | inhibition at 1 µM (Jurkat cells; Homo sapiens, Jurkat) [%] | inhibition at 10 µM (DHODH) [%] | EC50 (Jurkat cells; Homo sapiens, Jurkat, 72 h) [nM] | IC50 (DHODH) [nM] | EC50 (Jurkat cells; 72 hrs) [nM] | inh @ 10 uM hDHODH (%) (DHODH) |
| --- | --- | --- | --- | --- | --- | --- |
| Cc1cc(C(=O)O)c2nc(-c3c(F)c(F)c(-c4ccc(NC(=O)C5CCCN5)cc4)c(F)c3F)[nH]c2c1 (stereo not drawn) [I85] | 93.4 | 104 |  | 56 |  |  |
| O=C(O)c1cccc2nc(-c3ccc(-c4ccc(OCCO)cc4)cc3)[nH]c12 [I157] | 15.5 | 51.8 |  |  |  |  |
| O=C(O)c1cccc2nc(-c3c(F)c(F)c(-c4cccc(F)c4)c(F)c3F)[nH]c12 [I125] | 92 | 97 |  | 28.2 |  |  |
| O=C(O)c1cc(Cl)cc2[nH]c(-c3ccc(-c4ccccc4F)cc3)nc12 [I45] | 49.5 | 92.2 |  | 949 |  |  |
| O=C(O)c1cccc2[nH]c(-c3ccc(-c4ccccc4OCc4ccccc4)cc3)nc12 [I169] | 22 | 72 |  |  |  |  |
| Cc1cc(C(=O)O)c2nc(-c3ccc(-c4ccc(NC(=O)C5CCNCC5)cc4)cc3)[nH]c2c1 [I90] | 44.5 | 78.8 |  | 3690 |  |  |
| Nc1nnc(-c2cccc3[nH]c(-c4ccc(-c5ccccc5)cc4)nc23)s1 [I108] | 11 | 53 |  | 15900 |  |  |
| Cc1cc(C(=O)O)c2nc(C#Cc3ccc(OCc4ccccc4)cc3)[nH]c2c1 [I166] | 13.4 | 53.2 |  |  |  |  |
| Cc1cc(C(=O)O)c2nc(-c3ccc(N4CCCCCC4=O)cc3)[nH]c2c1 [I80, 6-Methyl-2-[4-(2-oxo-azepan-1-yl)-phenyl]-1H-benzoimidazole-4-carboxylic acid] |  | 9.4 |  |  |  |  |
| Cc1cc(C(=O)O)c2nc(-c3c(F)c(F)c(Oc4ccccc4)c(F)c3F)[nH]c2c1 [I189] | 3 | 39.8 |  |  |  |  |
| Cc1cc(C(=O)O)c2[nH]c(-c3c[nH]c4ccccc34)nc2c1 [I42] |  | 7.1 |  |  |  |  |
| Cc1cc(C(=O)O)c2nc(-c3ccc(-c4cnccn4)cc3)[nH]c2c1 [I147] |  | 44.3 |  | 8450 |  |  |
| FC(F)(F)c1cccc2[nH]c(-c3ccc(-c4ccccc4)cc3)nc12 [I43] |  | 5.6 |  |  |  |  |
| Cc1cc(C(=O)O)c2nc(-c3c(F)c(F)c(-c4ccccc4)c(F)c3F)n(C)c2c1 [I113] |  | 95 |  | 116 |  |  |
| O=C(O)c1cccc2nc(-c3ccc(N4CCOCC4)cc3)[nH]c12 [I62] |  | 8.4 |  |  |  |  |
| Cc1cc(C(=O)O)c2nc(C#Cc3ccccc3)[nH]c2c1 [I84, 6-Methyl-2-phenylethynyl-1H-benzoimidazole-4-carboxylic acid] |  | 59.5 |  |  |  |  |
| COC(=O)c1cccc2nc(-c3ccc(-c4ccccc4)cc3)[nH]c12 [I79, 2-Biphenyl-4-yl-1H-benzoimidazole-4-carboxylic acid methyl ester] |  | 5.3 |  |  |  |  |
| Cn1c(-c2ccc(-c3ccccc3)cc2)nc2cccc(C(=O)O)c21 [I8] |  | 90.5 |  | 1600 |  |  |
| O=C(O)c1cccc2[nH]c(-c3ccc(-c4ccc(C(F)(F)F)cc4)cc3)nc12 [I13] |  | 10.6 |  |  |  |  |
| Cc1ccc(-c2ccc(-c3nc4c(C(=O)O)cccc4[nH]3)cc2)cc1 [I12] |  | 9 |  |  |  |  |
| Cc1nc(-c2ccc(-c3nc4cccc(C(=O)O)c4[nH]3)cc2)oc1C [I66] |  | 8.4 |  |  |  |  |
| COc1cccc(-c2ccc(-c3nc4c(C(=O)O)cccc4[nH]3)c(F)c2)c1 [I4] |  |  |  |  |  | 2.1 |
| O=C(O)c1cccc2[nH]c(-c3ccc(OCc4ccccc4)cc3)nc12 [I2] |  | 66.1 |  | 4950 |  |  |
